Experimental data published in patent US20230159445A1, “STAT INHIBITORY COMPOUNDS AND COMPOSITIONS” (JANPIX LIMITED, priority 2020, published 2023).

Test system: glutathione (GSH)
Assay: Reactivity Profiling with Glutathione (GSH), half-life by HPLC
Conditions: 5 mM glutathione (GSH) in IMDM with 10% FBS

Structure (SMILES) | half-life at 25 μM [h]
O=C(O)c1ccc(N(Cc2cccc(N3CCCC3)c2)C(=O)CN(Cc2cnccc2C(F)(F)F)S(=O)(=O)c2c(F)c(F)c(F)c(F)c2F)c(OC2CC2)c1 [Compound 1159, 3-cyclopropoxy-4-(2-(N-((4-(trifluoromethyl)pyridin-3-yl)methyl)-(2,3,4,5,6-pentafluoro-phenyl)sulfonamido)-N-(3-(pyrrolidin-1-yl)benzyl)acetamido) benzoic acid] | 0.00167 to 2.37

Test system: MV4-11 cells
Assay: MV4-11 Cell Cytotoxicity Assay (CellTiter-Blue, 72 h)
Type: cell-based, human
Conditions: Homo sapiens, MV4-11; MV-4-11 cells
Protocol: In some embodiments, the potency of the STAT5 inhibitors are evaluated by an in vitro assay such as MV4-11 Cell Cytotoxicity Assay. […] 10,000 cells were plated per well in 96-well flat-bottom sterile culture plates with low-evaporation lids. After 24 h, inhibitors and a vehicle control (0.5% DMSO) were added and the cells were incubated for 72 h at 37° C. in 5% CO2. Inhibitors were examined in triplicate at a maximal concentration of 50 μM, followed by 1:2 dilutions in subsequent wells (25, 12.5, 6.25, 3.125, 1.5625, 0.78125, 0.390625, 0.195313 and 0.097656 μM). After 72 h, the wells were treated with CellTiter-Blue® (20 μL/well), and the plates were incubated using standard cell culture conditions for 1 hour. Fluorescence was measured at 560/590 nm.

Structure (SMILES) | IC50 [nM]
COc1cc(C(=O)O)ccc1N(Cc1cc(C2CC2)cc(C(C)(C)C)c1)C(=O)CN(Cc1ccc(Cl)cc1F)S(=O)(=O)c1c(F)c(F)c(F)c(F)c1F [Compound 1175, 4-(N-(3-(tert-butyl)-5-cyclopropylbenzyl)-2-(N-(4-chloro-2-fluorobenzyl)-(2,3,4,5,6-pentafluorophenyl)sulfon-amido)acetamido)-3-methoxybenzoic acid] | 316 to 1000
Cc1cc(C(=O)O)cc(C)c1N(Cc1cc(C2CC2)cc(C(C)(C)C)c1)C(=O)CN(Cc1cnccc1C(F)(F)F)S(=O)(=O)c1c(F)c(F)c(F)c(F)c1F [Compound 1181, 4-(N-(3-(tert-butyl)-5-cyclopropylbenzyl)-2-(N-((4-(trifluoromethyl)pyridin-3-yl)methyl)-(2,3,4,5,6-pentafluoro-phenyl)sulfonamido)acetamido)-3,5-dimethylbenzoic acid] | 316 to 1000
Cc1cc(C(=O)O)cc(C)c1N(Cc1cc(C2CC2)cc(C(C)(C)C)c1)C(=O)CN(Cc1ccc(F)cc1Cl)S(=O)(=O)c1c(F)c(F)c(F)c(F)c1F [Compound 1187, 4-(N-(3-(tert-butyl)-5-cyclopropylbenzyl)-2-(N-(2-chloro-4-fluorobenzyl)-(2,3,4,5,6-pentafluorophenyl)sulfon-amido)acetamido)-3,5-dimethylbenzoic acid] | 316 to 1000
Cc1cc(C(=O)O)cc(C)c1N(Cc1cc(C2CC2)cc(C2CC2)c1)C(=O)CN(Cc1cnccc1C(F)(F)F)S(=O)(=O)c1c(F)c(F)c(F)c(F)c1F [Compound 1202, 4-(N-(3,5-dicyclopropylbenzyl)-2-(N-((4-(trifluoromethyl)pyridin-3-yl)methyl)-(2,3,4,5,6-pentafluoro-phenyl)sulfonamido)acetamido)-3,5-dimethylbenzoic acid] | 316 to 1000
Cc1cc(C(=O)O)cc(C)c1N(Cc1cc(C2CC2)cc(N2CCCC2)c1)C(=O)CN(Cc1c(F)cc(F)cc1F)S(=O)(=O)c1c(F)c(F)c(F)c(F)c1F [Compound 1205, 4-(N-(3-cyclopropyl-5-(pyrrolidin-1-yl)benzyl)-2-(N-(2,4,6-trifluorobenzyl)-(2,3,4,5,6-pentafluoro-phenyl)sulfonamido)acetamido)-3,5-dimethylbenzoic acid] | 316 to 1000
Cc1cc(C(=O)O)cc(C)c1N(Cc1cc(C2CC2)cc(N2CCCC2)c1)C(=O)CN(Cc1ccc(F)cc1Cl)S(=O)(=O)c1c(F)c(F)c(F)c(F)c1F [Compound 1206, 4-(2-(N-(2-chloro-4-fluorobenzyl)-(2,3,4,5,6-pentafluorophenyl)sulfon-amido)-N-(3-cyclopropyl-5-(pyrrolidin-1-yl)benzyl)acetamido)-3,5-dimethylbenzoic acid] | 316 to 1000
CC(C)(C)c1cc(CN(C(=O)CN(Cc2ccc(F)cc2Cl)S(=O)(=O)c2c(F)c(F)c(F)c(F)c2F)c2ccc(C(=O)O)c(C(F)(F)F)c2)cc(C2CC2)c1 [Compound 1229, 4-(N-(3-(tert-butyl)-5-cyclopropylbenzyl)-2-(N-(2-chloro-4-fluorobenzyl)-(2,3,4,5,6-pentafluorophenyl)sulfon-amido)acetamido)-2-(trifluoromethyl) benzoic acid] | 1000 to 3160

Same assay, conditions: Homo sapiens; MV4-11 cells, 72 h, CellTiter-Blue; read-out: IC50- MV-4-11

Structure (SMILES) | IC50 [nM]
CC(C)(C)c1cc(N(C(=O)CN(Cc2ccc(Cl)cc2)S(=O)(=O)c2c(F)c(F)c(F)c(F)c2F)c2ccc(C(=O)O)cc2)cc(C(C)(C)C)c1 [Compound 2002, 4-(2-(N-(4-chlorobenzyl)-(2,3,4,5,6-pentafluorophenyl)sulfon-amido)-N-(3,5-di-tert-butylphenyl)acetamido)ben-zoic acid] | 316 to 1000
CC(C)(C)c1cc(CN(C(=O)CN(Cc2ccccc2)S(=O)(=O)c2c(F)c(F)c(F)c(F)c2F)c2ccc(C(=O)O)c(O)c2)cc(C(C)(C)C)c1 [Compound 2003, 4-(2-(N-benzyl-(2,3,4,5,6-pentafluorophenyl)sulfon-amido)-N-(3,5-di-tert-butylbenzyl)acetamido)-2-hydroxybenzoic acid] | 1000 to 3160
CC(C)(C)c1cc(C(=O)N(CCN(Cc2ccc(Cl)cc2)S(=O)(=O)c2c(F)c(F)c(F)c(F)c2F)c2ccc(C(=O)O)cc2)cc(C(C)(C)C)c1 [Compound 2005, 4-(3,5-di-tert-butyl-N-(2-(N-(4-chlorobenzyl)-(2,3,4,5,6-pentafluorophenyl)sulfon-amido)ethyl)benzamido)ben-zoic acid] | 316 to 1000
O=C(O)c1ccc(N(Cc2ccc3c(c2)OCCO3)C(=O)CN(Cc2ccc(Cl)cc2)S(=O)(=O)c2c(F)c(F)c(F)c(F)c2F)cc1O [Compound 2006, 4-(2-(N-(4-chlorobenzyl)-(2,3,4,5,6-pentafluorophenyl)sulfon-amido)-N-((2,3-dihydrobenzo[b][1,4]dioxin-6-yl)methyl)acetamido)-2-hydroxybenzoic acid] | 3160 to 100000
CC(C)COc1cc(CN(C(=O)CN(Cc2ccc(Cl)cc2)S(=O)(=O)c2c(F)c(F)c(F)c(F)c2F)c2ccc(C(=O)O)c(O)c2)cc(OCC(C)C)c1 [Compound 2007, 4-(2-(N-(4-chlorobenzyl)-(2,3,4,5,6-pentafluorophenyl)sulfon-amido)-N-(3,5-diisobutoxybenzyl)acetami-do)-2-hydroxybenzoic acid] | 3160 to 100000
CC(C)(C)c1cc(CN(C(=O)CN(C23CC(C2)C3)S(=O)(=O)c2c(F)c(F)c(F)c(F)c2F)c2ccc(C(=O)O)c(O)c2)cc(C2CC2)c1 [Compound 2008, 4-(2-(N-(bicyclo[1.1.1]pentan-1-yl)-(2,3,4,5,6-pentafluorophenyl)sulfon-amido)-N-(3-(tert-butyl)-5-cyclopropylbenzyl)acetami-do)-2-hydroxybenzoic acid] | 3160 to 100000
O=C(O)c1ccc(N(Cc2cc(OCC(F)(F)F)cc(OCC(F)(F)F)c2)C(=O)CN(Cc2ccc(Cl)cc2)S(=O)(=O)c2c(F)c(F)c(F)c(F)c2F)cc1O [Compound 2009, 4-(N-(3,5-bis(2,2,2-trifluoroethoxy)benzyl)-2-(N-(4-chlorobenzyl)-(2,3,4,5,6-pentafluorophenyl)sulfon-amido)acetamido)-2-hydroxybenzoic acid] | 3160 to 100000
O=C(O)c1ccc(N(Cc2cc(O)cc(O)c2)C(=O)CN(Cc2ccc(Cl)cc2)S(=O)(=O)c2c(F)c(F)c(F)c(F)c2F)cc1O [Compound 2010, 4-(2-(N-(4-chlorobenzyl)-(2,3,4,5,6-pentafluorophenyl)sulfon-amido)-N-(3,5-dihydroxybenzyl)acetamido)-2-hydroxybenzoic acid] | 3160 to 100000
CC(C)(C)c1cccc(CN(C(=O)CN(C23CC(C2)C3)S(=O)(=O)c2c(F)c(F)c(F)c(F)c2F)c2ccc(C(=O)O)c(O)c2)c1 [Compound 2011, 4-(2-(N-(bicyclo[1.1.1]pentan-1-yl)-(2,3,4,5,6-pentafluorophenyl)sulfon-amido)-N-(3-(tert-butyl)benzyl)acetamido)-2-hydroxybenzoic acid] | 1000 to 3160
O=C(O)c1ccc(N(Cc2cc(Cl)cc(Cl)c2)C(=O)CN(Cc2ccc(Cl)cc2)S(=O)(=O)c2c(F)c(F)c(F)c(F)c2F)cc1O [Compound 2012, 4-(2-(N-(4-chlorobenzyl)-(2,3,4,5,6-pentafluorophenyl)sulfon-amido)-N-(3,5-dichlorobenzyl)acetamido)-2-hydroxybenzoic acid] | 3160 to 100000
CC(C)(C)c1cc(N(C(=O)CN(Cc2ccc(Cl)cc2)S(=O)(=O)c2c(F)c(F)c(F)c(F)c2F)c2ccc(C(=O)O)c(O)c2)cc(C(C)(C)C)c1 [Compound 2014, 4-(2-(N-(4-chlorobenzyl)-(2,3,4,5,6-pentafluorophenyl)sulfon-amido)-N-(3,5-di-tert-butylphenyl)acetamido)-2-hydroxybenzoic acid] | 1000 to 3160
COc1cc(C(=O)O)ccc1N(C)C(=O)CN(Cc1ccccc1C(F)(F)F)S(=O)(=O)c1c(F)c(F)c(F)c(F)c1F [Compound 2018, 3-methoxy-4-(N-methyl-2-(N-(2-(trifluoromethyl)benzyl)-(2,3,4,5,6-pentafluoro-phenyl)sulfonamido)acetami-do)benzoic acid] | 1000 to 3160
CC1(C)OC(=O)c2ccc(N(Cc3cc(C4CC4)cc(C(C)(C)C)c3)C(=O)CN(Cc3ccc(Cl)cc3)S(=O)(=O)c3c(F)c(F)c(F)c(F)c3F)cc2O1 [Compound 2022, N-(3-(tert-butyl)-5-cyclopropylbenzyl)-2-(N-(4-chlorobenzyl)-(2,3,4,5,6-pentafluorophenyl)sulfon-amido)-N-(2,2-dimethyl-4-oxo-4H-benzo[d][1,3]dioxin-7-yl)acetamide] | 3160 to 100000

Same assay, conditions: MV4-11 cells, 72 h, CellTiter-Blue; read-out: IC50- MV-4-11

Structure (SMILES) | IC50 [nM]
O=C(O)c1ccc(N(Cc2cc(Cl)cc(Br)c2)C(=O)CN(Cc2ccc(Cl)cc2)S(=O)(=O)c2c(F)c(F)c(F)c(F)c2F)cc1O [Compound 2013, 4-(N-(3-bromo-5-chlorobenzyl)-2-(N-(4-chlorobenzyl)-(2,3,4,5,6-pentafluorophenyl)sulfon-amido)acetamido)-2-hydroxybenzoic acid] | 3160 to 100000

Same assay, conditions: MV-4-11 cells

Structure (SMILES) | IC50 [nM]
COc1cc(C(=O)O)ccc1N(Cc1cc(C2CC2)cc(C2CC2)c1)C(=O)CN(Cc1ncc(F)cc1Cl)S(=O)(=O)c1c(F)c(F)c(F)c(F)c1F [Compound 1176, 4-(2-(N-((3-chloro-5-fluoropyridin-2-yl)methyl)-(2,3,4,5,6-pentafluorophenyl)sulfon-amido)-N-(3,5-dicyclopropylbenzyl)acetamido)-3-methoxybenzoic acid] | 0.01 to 316
